We go through 31 molecules from ChEMBL document CHEMBL4622975 (J Med Chem, 2020).

Structures are written as SMILES. Calls of active or inactive are those of the source. The rule behind the calls is not given here. Where only a bound is given, the exact number is not on record here.

In series [1] the target is T1, Tyrosine-protein phosphatase non-receptor type 1 (Homo sapiens, UniProt P18031).
T1 sequence (P18031 whole entry): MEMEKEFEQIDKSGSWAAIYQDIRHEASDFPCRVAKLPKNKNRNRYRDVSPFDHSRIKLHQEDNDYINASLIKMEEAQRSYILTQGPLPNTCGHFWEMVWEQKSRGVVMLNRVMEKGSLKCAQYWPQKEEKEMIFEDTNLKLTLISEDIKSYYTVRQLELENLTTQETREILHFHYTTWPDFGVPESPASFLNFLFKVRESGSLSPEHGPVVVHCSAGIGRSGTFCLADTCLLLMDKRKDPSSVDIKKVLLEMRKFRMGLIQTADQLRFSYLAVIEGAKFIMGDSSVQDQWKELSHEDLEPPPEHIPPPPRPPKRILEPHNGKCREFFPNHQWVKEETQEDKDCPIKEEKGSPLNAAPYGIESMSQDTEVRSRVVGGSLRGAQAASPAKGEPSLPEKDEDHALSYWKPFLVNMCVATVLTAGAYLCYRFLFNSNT

In series [2] the target is T2, Phosphotyrosine protein phosphatase (Mycobacterium tuberculosis, UniProt A0A045ISB3).
T2 sequence (A0A045ISB3 whole entry): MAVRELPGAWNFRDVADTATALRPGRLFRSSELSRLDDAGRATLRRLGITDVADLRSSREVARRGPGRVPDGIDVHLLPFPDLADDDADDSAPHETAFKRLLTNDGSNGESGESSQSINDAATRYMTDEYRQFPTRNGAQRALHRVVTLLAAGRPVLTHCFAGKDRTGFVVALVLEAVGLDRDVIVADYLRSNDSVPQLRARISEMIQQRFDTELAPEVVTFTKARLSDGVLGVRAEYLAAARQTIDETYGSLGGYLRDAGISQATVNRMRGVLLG
Description: Inhibition of Mycobacterium tuberculosis PTPB expressed in Escherichia coli BL21 (DE3) using p-nitrophenyl phosphate as substrate measured after 30 mins by UV-vis spectrophotometric method

Series [3] has as its target Tyrosine-protein phosphatase non-receptor type 6 (Homo sapiens, UniProt P29350).
Series [4] has as its target T3, Tyrosine-protein phosphatase non-receptor type 11 (Homo sapiens, UniProt Q06124).
T3 sequence (Q06124 whole entry): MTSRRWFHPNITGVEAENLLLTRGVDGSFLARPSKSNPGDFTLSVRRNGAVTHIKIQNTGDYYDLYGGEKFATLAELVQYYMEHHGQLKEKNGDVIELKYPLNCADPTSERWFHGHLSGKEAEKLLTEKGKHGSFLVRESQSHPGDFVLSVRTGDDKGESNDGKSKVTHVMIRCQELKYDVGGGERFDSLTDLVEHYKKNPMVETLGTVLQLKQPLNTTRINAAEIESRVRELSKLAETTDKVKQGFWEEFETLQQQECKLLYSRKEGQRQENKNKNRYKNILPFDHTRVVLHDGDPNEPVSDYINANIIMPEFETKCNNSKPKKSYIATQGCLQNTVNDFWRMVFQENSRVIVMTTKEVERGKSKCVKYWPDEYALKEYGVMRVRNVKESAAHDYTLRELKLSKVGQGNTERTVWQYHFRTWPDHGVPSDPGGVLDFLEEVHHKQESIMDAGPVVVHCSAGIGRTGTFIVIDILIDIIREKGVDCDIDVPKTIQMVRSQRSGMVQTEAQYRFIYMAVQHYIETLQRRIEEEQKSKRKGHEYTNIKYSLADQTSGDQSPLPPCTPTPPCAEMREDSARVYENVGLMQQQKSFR

Series [5] concerns MEF. The series can be described thus: Cytotoxicity against MEF at 25 uM measured after 72 hrs by MTT assay. The format is cell-based. Particulars: mouse. (In general: Formazan colour is commonly taken as a measure of viable cells.)
The target in series [6] is T4, Phosphotyrosine protein phosphatase (Mycobacterium tuberculosis) (UniProt A0A045ISB3).
T4 sequence (whole entry): T2 sequence (A0A045ISB3 whole entry)
Description: Time-dependent inhibition of Mycobacterium tuberculosis PTPB expressed in Escherichia coli BL21 (DE3) using p-nitrophenyl phosphate as substrate in presence of Triton-X-100 by UV-vis spectrophotometric method

For series [7], the target named is T4, Phosphotyrosine protein phosphatase (Mycobacterium tuberculosis). This is another data set of the same source.
Description: Time-dependent inhibition of Mycobacterium tuberculosis PTPB expressed in Escherichia coli BL21 (DE3) using p-nitrophenyl phosphate as substrate in absence of Triton-X-100 by UV-vis spectrophotometric method
A short description of series [8]: Stability in CD1 mouse pooled liver microsomes measured after 2 hrs in absence of NADPH by LC-MS/MS analysis. The format is ADME, Microsome. (Liver microsomes are a subcellular fraction often used to study metabolism.)
Series [9] can be described thus: Drug uptake in mouse RAW264.7 cells at 20 uM measured after 2 hrs by LC-MS analysis. The format is ADME, cell-based. Particulars: raw264.7, 2 h.
The target in series [10] is Receptor-type tyrosine-protein phosphatase epsilon (Homo sapiens, UniProt P23469).
Sequence of Receptor-type tyrosine-protein phosphatase epsilon (P23469 whole entry): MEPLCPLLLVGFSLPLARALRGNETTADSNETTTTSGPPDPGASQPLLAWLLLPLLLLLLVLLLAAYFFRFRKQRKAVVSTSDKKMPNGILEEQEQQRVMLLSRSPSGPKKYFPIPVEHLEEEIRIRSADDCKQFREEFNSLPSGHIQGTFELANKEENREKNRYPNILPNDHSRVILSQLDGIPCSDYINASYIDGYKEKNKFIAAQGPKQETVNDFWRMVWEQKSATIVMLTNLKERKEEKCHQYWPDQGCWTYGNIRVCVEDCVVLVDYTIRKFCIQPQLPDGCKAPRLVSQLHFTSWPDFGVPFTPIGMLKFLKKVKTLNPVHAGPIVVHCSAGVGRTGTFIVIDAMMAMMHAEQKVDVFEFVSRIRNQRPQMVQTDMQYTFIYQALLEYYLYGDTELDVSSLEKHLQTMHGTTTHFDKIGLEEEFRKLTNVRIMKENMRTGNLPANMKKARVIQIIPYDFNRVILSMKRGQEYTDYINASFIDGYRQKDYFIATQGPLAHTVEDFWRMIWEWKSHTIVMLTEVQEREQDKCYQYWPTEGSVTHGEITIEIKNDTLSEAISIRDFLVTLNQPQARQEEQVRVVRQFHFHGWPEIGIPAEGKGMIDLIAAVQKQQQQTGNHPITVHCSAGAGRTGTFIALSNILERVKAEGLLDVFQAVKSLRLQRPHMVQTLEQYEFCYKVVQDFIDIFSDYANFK

Sequence of Tyrosine-protein phosphatase non-receptor type 6 (P29350 whole entry): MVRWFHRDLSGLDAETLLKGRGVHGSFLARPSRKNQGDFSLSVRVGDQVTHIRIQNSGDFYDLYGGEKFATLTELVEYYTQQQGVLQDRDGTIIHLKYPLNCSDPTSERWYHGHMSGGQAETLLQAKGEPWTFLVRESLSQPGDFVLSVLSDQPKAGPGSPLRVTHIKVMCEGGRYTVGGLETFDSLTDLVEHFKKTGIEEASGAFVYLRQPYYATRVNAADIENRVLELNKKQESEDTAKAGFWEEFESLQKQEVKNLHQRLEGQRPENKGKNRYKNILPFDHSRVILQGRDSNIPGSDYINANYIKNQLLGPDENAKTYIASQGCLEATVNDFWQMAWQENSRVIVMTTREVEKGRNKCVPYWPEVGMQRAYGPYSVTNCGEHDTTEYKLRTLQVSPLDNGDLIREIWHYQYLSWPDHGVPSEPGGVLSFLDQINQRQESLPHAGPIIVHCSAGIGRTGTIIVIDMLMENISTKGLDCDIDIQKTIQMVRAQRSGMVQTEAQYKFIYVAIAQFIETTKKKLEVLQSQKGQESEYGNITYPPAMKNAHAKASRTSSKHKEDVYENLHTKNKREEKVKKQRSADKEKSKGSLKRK

With `CN(C)c1cc(O)c(C(=O)O)cc1C#Cc1ccc(NC(=O)C(=O)O)cc1`, the IC50 in series [1] was greater than 100 µM; in series [2] it was 0.09 µM.

Regarding `O=C(O)C(=O)Nc1ccc(C#Cc2ccc(O)c(Br)c2)cc1`, the IC50 in series [3] and in [1] was greater than 50 µM each time.

As to `O=C(O)C(=O)Nc1ccc(CCc2ccc(C(F)(F)F)cc2)cc1`, the IC50 in series [4] was greater than 30 µM; in series [1], greater than 30 µM; in [2], 0.197 µM.

Regarding `COC(=O)c1cc(C#Cc2ccc(NC(=O)C(=O)O)cc2)ccc1O`, the figures for the IC50 in [3], in [1] and in series [2] were greater than 50 µM, greater than 50 µM and 0.025 µM, respectively.

For the molecule `O=C(O)C(=O)Nc1ccc(C#Cc2ccc(OC(F)(F)F)cc2)cc1`, the IC50 in series [4], in series [3] and in series [1] was greater than 50 µM in each case.

Turning to `CN(C)c1cc(O)c(C(=O)O)cc1C#Cc1cccc(NC(=O)C(=O)O)c1`, inhibition in series [2] was half-maximal at 0.16 µM (IC50).

Turning to `NS(=O)(=O)c1ccc(C#Cc2ccc(NC(=O)C(=O)O)cc2)cc1`, the IC50 in series [4] and in [1] was greater than 50 µM each time.

On to `O=C(O)C(=O)Nc1ccc(C#Cc2ccc3ccccc3c2)cc1`, for which the IC50 in series [4], in series [3] and in series [1] was greater than 50 µM throughout.

Turning to `O=C(O)C(=O)Nc1cccc(C#Cc2ccccc2)c1`, the IC50 in [1] was greater than 100 µM.

On to `CC(C)(C)OC(=O)Nc1ccc(C#Cc2ccc(NC(=O)C(=O)O)cc2)cc1`, for which the IC50 in series [4], in series [3] and in series [1] was greater than 50 µM each time. Besides, in [5], the Activity result was “Non-Toxic”.

Regarding `O=C(O)C(=O)Nc1ccc(C#Cc2cc(C(F)(F)F)cc(C(F)(F)F)c2)cc1`, the TDI result in series [6] and in series [7] was “Active” each time. Also, the IC50 in series [4] was greater than 50 µM; in series [3], greater than 50 µM; in series [1] it was greater than 50 µM; in series [2] it was 0.06 µM.

`CC(C)(C)c1ccc(C#Cc2ccc(NC(=O)C(=O)O)cc2)cc1`: the IC50 in series [4] is greater than 50 µM; in series [3], greater than 50 µM; in [1] it was greater than 50 µM; in [2], 0.026 µM.

For the molecule `COC(=O)c1ccc(C#Cc2ccc(NC(=O)C(=O)O)cc2)cc1O`, the IC50 in [4], in series [3] and in series [1] was greater than 50 µM throughout.

`O=C(O)C(=O)Nc1ccc(/C=C\c2ccc(C(F)(F)F)cc2)cc1`: the 50% inhibitory concentration (IC50) is greater than 30 µM in series [4], greater than 30 µM in [1] and 0.684 µM in [2].

In turn, `O=C(O)C(=O)Nc1cnc2ccccc2c1` returned an IC50 in series [2] greater than 10 µM.

As to `O=C(O)C(=O)Nc1ccc(C#Cc2cccc(C(F)(F)F)c2)cc1`, the IC50 in [4] and in series [3] was greater than 50 µM in each case.

`O=C(O)C(=O)Nc1ccc(CCc2ccccc2)cc1`: the IC50 in series [4] is greater than 30 µM; in [1], greater than 30 µM; in [2] it was 1.27 µM.

For the molecule `O=C(O)C(=O)Nc1ccc(/C=C\c2ccccc2)cc1`, the figures for the IC50 in [4], in series [1] and in [2] were greater than 30 µM, greater than 30 µM and 0.77 µM, respectively.

With `COC(=O)c1cc(C#Cc2ccc(NC(=O)C(=O)O)cc2)c(N(C)C)cc1O`, the IC50 was greater than 50 µM in series [4], greater than 50 µM in series [3], greater than 50 µM in series [1] and 0.03 µM in series [2].

Regarding `COC(=O)c1cc(C#Cc2cccc(NC(=O)C(=O)O)c2)c(N(C)C)cc1O`, the IC50 in [4], in [3] and in series [1] was greater than 50 µM in each case.

`O=C(O)C(=O)Nc1ccc(C#Cc2ccc(C(F)(F)F)cc2Br)cc1`: in series [8], the Stability result is “Stable”. For the same molecule, the Drug uptake result in series [9] is listed as “Active”.

For the molecule `N#Cc1ccc(C#Cc2ccc(NC(=O)C(=O)O)cc2)cc1`, the IC50 in series [4], in [3] and in [1] was greater than 50 µM in each case.

Turning to `O=C(O)C(=O)Nc1ccc(C#Cc2ccc(C(F)(F)F)cc2Cl)cc1`, in series [8], the Stability result is listed as “Stable”. The Drug uptake entry in series [9] is recorded as “Active”. Moreover, the IC50 in [4], in series [3] and in [1] was greater than 30 µM in each case. In series [5], the Activity entry is reported as “Non-Toxic”.

Regarding `O=C(O)C(=O)Nc1ccc(C#Cc2ccc(O)cc2)cc1`, the IC50 in [4], in [3] and in series [1] was greater than 50 µM throughout.

`CC(C)(C)OC(=O)NCC#Cc1ccc(NC(=O)C(=O)O)cc1` registered an IC50 in [1] greater than 100 µM.

Consider `O=C(O)C(=O)Nc1ccc(C#Cc2ccccc2)cc1`, for which the IC50 is greater than 100 µM in series [4], greater than 100 µM in [3], greater than 100 µM in series [1] and 0.257 µM in series [2].

Turning to `O=C(O)C(=O)Nc1ccc(C#Cc2ccc(C(F)(F)F)cc2)cc1`, the IC50 in [10] is greater than 30 µM; in series [4] it was greater than 50 µM; in series [3], greater than 50 µM; in series [1] it was greater than 50 µM. In addition, the Stability entry in series [8] is listed as “Stable”. Also, the Drug uptake entry in [9] is on record as “Active”.

For the molecule `O=C(O)C(=O)Nc1ccc(C#Cc2ccc(C(F)(F)F)cc2C(F)(F)F)cc1`, the IC50 in series [4], in series [3] and in series [1] was greater than 30 µM throughout.

Regarding `O=C(O)C(=O)Nc1ccccc1`, the IC50 in series [4] and in series [1] was greater than 100 µM in each case.

Regarding `C#Cc1ccc(NC(=O)C(=O)O)cc1`, the IC50 in series [4] and in series [1] was greater than 100 µM throughout.

Regarding `O=C(O)C(=O)Nc1ccc(C#Cc2ccc(C(F)(F)F)cc2F)cc1`, in series [8], the Stability entry was “Stable”. In series [9], the Drug uptake result is “Active”. In addition, the IC50 in series [4], in series [3] and in series [1] was greater than 30 µM throughout.

Broadly, the IC50 is the concentration that inhibits the measured activity by half. Higher therefore signals weaker potency.
